Values of other authors in patent publication US20200046643A1, “EXTENDED RELEASE FORMULATIONS OF CANNABINOIDS” (Glatt GmbH, priority 2018, published 2020).

Legend:
[1] = after oral administration

Structure (SMILES): C=C(C)[C@@H]1CCC(C)=C[C@H]1c1c(O)cc(CCCCC)cc1O [CBD, cannabidiol]
- solubility in organic solvents (organic solvents): soluble in organic solvents
- solubility in water: insoluble in water

Structure (SMILES): CCCCCc1cc(O)c2c(c1)OC(C)(C)[C@@H]1CCC(C)=C[C@@H]21 [THC, Δ9-tetrahydrocannabinol]
- duration of action [1]: 2 to 4 h
- duration of appetite-increasing action [1]: up to 24 hours
- duration of psychoactive action [1]: 4 to 6 h

Structure (SMILES): CCCCCc1cc(O)c2c(c1)OC(C)(C)[C@@H]1CCC(C)=C[C@@H]21 [dronabinol]
- solubility in water: insoluble in water
